From ChEMBL document CHEMBL5518236, “Discovery of Clinical Candidate AZD5462, a Selective Oral Allosteric RXFP1 Agonist for Treatment of Heart Failure” (J Med Chem, 2024)

Assays:
[1] = Octanol/water partition coefficient, logD of the compound at pH 7.4 by shake flask method; format: physicochemical
[2] = Metabolic stability in human hepatocytes assessed as intrinsic clearance measured per 10^6 viable cells/ml at 1 uM measured upto 120 mins by LC-MS/MS analysis; format: ADME, cell-based, Hepatocyte; details: read-out: CLH
[3] = Metabolic stability in human hepatocytes assessed as unbound intrinsic clearance measured per 10^6 viable cells/ml at 1 uM measured upto 120 mins by LC-MS/MS analysis; format: ADME, cell-based, Hepatocyte; details: 2 h
[4] = Metabolic stability in human liver microsomes assessed as intrinsic clearance at 1 uM measured upto 30 mins by LC-MS/MS analysis; format: ADME, Microsome; details: read-out: CLH
[5] = Metabolic stability in human liver microsomes assessed as unbound intrinsic clearance at 1 uM measured upto 30 mins by LC-MS/MS analysis; format: ADME, Microsome; details: 0.5 h

SMILES | logD [1] | hepatocyte CLint at 1 µM [2] | CL free [3] | microsomal CLint at 1 µM [4] | CL free [5]
COc1cc(Cl)c(O[C@H]2CC[C@@](C)(C(=O)O)CC2)cc1C(=O)N[C@@H]1[C@H]2CC[C@H](C2)[C@@H]1C(=O)NCC1(C)CCC1 | 3.5 | 4.8 µL/min/1e6 cells | 14 µL/min | 36 µL/min/mg | 64 µL/min/mg
COc1cc(Cl)c(O[C@H]2CC[C@@](C)(C(=O)O)CC2)cc1C(=O)N[C@@H]1[C@@H]2CC[C@@H](C2)[C@@H]1C(=O)NCC1(C)CCC1 | 3.6 | 49 µL/min/1e6 cells | 153 µL/min | 20 µL/min/mg | 100 µL/min/mg
CC1(CNC(=O)[C@H]2[C@@H]3CC[C@@H](C3)[C@H]2NC(=O)c2cc(O[C@H]3CC[C@@](C)(C(=O)O)CC3)c(F)cc2F)CCC1 | 2.9 | 6.7 µL/min/1e6 cells | 10 µL/min | 37 µL/min/mg | 49 µL/min/mg
COc1c(C)cc(O[C@H]2CC[C@@](C)(C(=O)O)CC2)cc1C(=O)N[C@@H]1[C@H]2CC[C@H](C2)[C@@H]1C(=O)NCC1(C)CCC1 | 2.9 | 5.6 µL/min/1e6 cells | 8.9 µL/min | 7 µL/min/mg | 10 µL/min/mg
COc1cc(C(F)F)c(O[C@H]2CC[C@@](C)(C(=O)O)CC2)cc1C(=O)N[C@@H]1[C@H]2CC[C@H](C2)[C@@H]1C(=O)NCC1(C)CCC1 | 3.8 | 5.1 µL/min/1e6 cells | 11 µL/min | 23 µL/min/mg | 39 µL/min/mg
COc1cc(F)c(O[C@H]2C[C@@](C)(C(=O)O)C2)cc1C(=O)N[C@@H]1[C@H]2CC[C@H](C2)[C@@H]1C(=O)NCC1(C)CCC1 | 2 | 4.3 µL/min/1e6 cells | 5.4 µL/min | 7.6 µL/min/mg | 10 µL/min/mg
COc1cc(C)c(O[C@H]2CC[C@@](C)(C(=O)O)CC2)cc1C(=O)N[C@@H]1[C@H]2CC[C@H](C2)[C@@H]1C(=O)NCC1(C)CCC1 | 3.5 | 3.1 µL/min/1e6 cells | 4.9 µL/min | 38 µL/min/mg | 54 µL/min/mg
COc1cc(S(C)(=O)=O)c(O[C@H]2CC[C@@](C)(C(=O)O)CC2)cc1C(=O)N[C@@H]1[C@H]2CC[C@H](C2)[C@@H]1C(=O)NCC1(C)CCC1 | 1.9 | 1.2 µL/min/1e6 cells | 1.7 µL/min | 11 µL/min/mg | 14 µL/min/mg
COc1cc(F)c(O[C@H]2CC[C@@](C)(C(=O)O)CC2)cc1C(=O)N[C@@H]1[C@H]2CC[C@H](C2)[C@@H]1C(=O)N[C@H](C)C(C)(C)C | 3.4 | 5.9 µL/min/1e6 cells | 11 µL/min | 33 µL/min/mg | 50 µL/min/mg
COc1cc(F)c(O[C@H]2CC[C@@](C)(c3n[nH]c(=O)o3)CC2)cc1C(=O)N[C@@H]1[C@H]2CC[C@H](C2)[C@@H]1C(=O)NCC1(C)CCC1 | 5.4 | 73 µL/min/1e6 cells | 562 µL/min | > 300 µL/min/mg | 2.8 10^3uL/min/mg
COc1c(Cl)cc(O[C@H]2CC[C@@](C)(C(=O)O)CC2)cc1C(=O)N[C@@H]1[C@H]2CC[C@H](C2)[C@@H]1C(=O)NCC1(C)CCC1 | 3.3 | 13 µL/min/1e6 cells | 31 µL/min | 81 µL/min/mg | 147 µL/min/mg
CCc1cc(OC)c(C(=O)N[C@@H]2[C@H]3CC[C@H](C3)[C@@H]2C(=O)NCC2(C)CCC2)cc1O[C@H]1CC[C@@](C)(C(=O)O)CC1 | 4 | 3.9 µL/min/1e6 cells | 9.1 µL/min | 44 µL/min/mg | 83 µL/min/mg
COc1cc(F)c(O[C@H]2CC[C@@](C)(c3nnn[nH]3)CC2)cc1C(=O)N[C@@H]1[C@H]2CC[C@H](C2)[C@@H]1C(=O)NCC1(C)CCC1 | 2.8 | 5.8 µL/min/1e6 cells | 13 µL/min | 15 µL/min/mg | 29 µL/min/mg
COc1cc(C#N)c(O[C@H]2CC[C@@](C)(C(=O)O)CC2)cc1C(=O)N[C@@H]1[C@H]2CC[C@H](C2)[C@@H]1C(=O)NCC1(C)CCC1 | 2.85 | 5.5 µL/min/1e6 cells | 10 µL/min | 20 µL/min/mg | 30 µL/min/mg
